Results reported in patent US20200267980A1, “Herbicidally Active Pyridyl-/Pyrimidyl-Pyrimidine Derivatives” (Syngenta Participations AG, priority 2017, published 2020).

Key:
Type in all cases: in vivo
[1] = system: Avena fatua (AVEFA); assay: Post-emergence herbicidal activity, glasshouse pot test; conditions: 1000 g/ha, post-emergence spray after 8 days cultivation, evaluated after 13 days, damage score 0-5
Description: (§1) Seeds of a variety of test species were sown in standard soil in pots: Triticum aestivium (TRZAW), Avena fatua (AVEFA), Alopecurus myosuroides (ALOMY), Echinochloa crus-galli (ECHCG), Lolium perenne (LOLPE), and Setaria faberi (SETFA). After 8 days cultivation (post-emergence) under controlled conditions in a glasshouse (at 24/16° C., day/night; 14 hours light; 65% humidity), the plants were sprayed with an aqueous spray solution derived from the formulation of the technical active ingredient in acetone/water (50:50) solution containing 0.5% Tween 20 (polyoxyethelyene sorbitan monolaurate, CAS RN 9005-64-5). The test plants were then grown in a glasshouse under controlled conditions (at 24/16° C., day/night; 14 hours light; 65% humidity) and watered twice daily. After 13 days, the test was evaluated (5=total damage to plant; 0=no damage to plant).

[2] = system: Lolium perenne (LOLPE); assay: Pre-emergence herbicidal activity, glasshouse pot test; parameters: key: 5=total damage to plant; 0=no damage to plant; conditions: 1000 g/ha, pre-emergence spray, evaluated after 13 days, damage score 0-5
Description: as §1, with “After” for “After 8 days”, “for one day (pre-emergence)” for “(post-emergence)”

[3] = system: Avena fatua (AVEFA); assay: as above; parameters: key: 5=total damage to plant; 0=no damage to plant; conditions: 1000 g/ha, pre-emergence spray, evaluated after 13 days, damage score 0-5
Description: as §1, with “After” for “After 8 days”, “for one day (pre-emergence)” for “(post-emergence)”

[4] = system: Setaria faberi (SETFA); assay: as above; parameters: key: 5=total damage to plant; 0=no damage to plant; conditions: 1000 g/ha, pre-emergence spray, evaluated after 13 days, damage score 0-5
Description: as §1, with “After” for “After 8 days”, “for one day (pre-emergence)” for “(post-emergence)”

[5] = system: Alopecurus myosuroides (ALOMY); assay: as above; parameters: key: 5=total damage to plant; 0=no damage to plant; conditions: 1000 g/ha, pre-emergence spray, evaluated after 13 days, damage score 0-5
Description: as §1, with “After” for “After 8 days”, “for one day (pre-emergence)” for “(post-emergence)”

[6] = system: Echinochloa crus-galli (ECHCG); assay: as above; parameters: key: 5=total damage to plant; 0=no damage to plant; conditions: 1000 g/ha, pre-emergence spray, evaluated after 13 days, damage score 0-5
Description: as §1, with “After” for “After 8 days”, “for one day (pre-emergence)” for “(post-emergence)”

[7] = system: Triticum aestivium (TRZAW); assay: as above; parameters: key: 5=total damage to plant; 0=no damage to plant; conditions: 1000 g/ha, pre-emergence spray, evaluated after 13 days, damage score 0-5
Description: as §1, with “After” for “After 8 days”, “for one day (pre-emergence)” for “(post-emergence)”

[8] = system: Lolium perenne (LOLPE); assay: Post-emergence herbicidal activity, glasshouse pot test; parameters: key: 5=total damage to plant; 0=no damage to plant; conditions: 1000 g/ha, post-emergence spray after 8 days cultivation, evaluated after 13 days, damage score 0-5
Description: as §1

[9] = system: Setaria faberi (SETFA); assay: as above; parameters: key: 5=total damage to plant; 0=no damage to plant; conditions: 1000 g/ha, post-emergence spray after 8 days cultivation, evaluated after 13 days, damage score 0-5
Description: as §1

[10] = system: Alopecurus myosuroides (ALOMY); assay: as above; parameters: key: 5=total damage to plant; 0=no damage to plant; conditions: 1000 g/ha, post-emergence spray after 8 days cultivation, evaluated after 13 days, damage score 0-5
Description: as §1

[11] = system: Echinochloa crus-galli (ECHCG); assay: as above; parameters: key: 5=total damage to plant; 0=no damage to plant; conditions: 1000 g/ha, post-emergence spray after 8 days cultivation, evaluated after 13 days, damage score 0-5
Description: as §1

[12] = system: Triticum aestivium (TRZAW); assay: as above; parameters: key: 5=total damage to plant; 0=no damage to plant; conditions: 1000 g/ha, post-emergence spray after 8 days cultivation, evaluated after 13 days, damage score 0-5
Description: as §1

| SMILES | Control of weed species after post-emergence application, AVEFA [1] | Control of weed species after pre-emergence application, LOLPE [2] | Control of weed species after pre-emergence application, AVEFA [3] | Control of weed species after pre-emergence application, SETFA [4] | Control of weed species after pre-emergence application, ALOMY [5] | Control of weed species after pre-emergence application, ECHCG [6] | Control of weed species after pre-emergence application, TRAZW [7] | Control of weed species after post-emergence application, LOLPE [8] | Control of weed species after post-emergence application, SETFA [9] | Control of weed species after post-emergence application, ALOMY [10] | Control of weed species after post-emergence application, ECHCG [11] | Control of weed species after post-emergence application, TRAZW [12] |
| --- | --- | --- | --- | --- | --- | --- | --- | --- | --- | --- | --- | --- |
| O=C(CCC1CCCC1)Nc1cnc(-c2cncnc2)nc1C(F)(F)F [Compound F17] | 2 | 0 | 1 | 4 | 0 | 3 | 0 | 1 | 4 | 0 | 4 | 1 |
| O=C(Nc1cnc(-c2cncc(F)c2)nc1C(F)(F)F)c1cccs1 [Compound F9] | 2 | 1 | 1 | 4 | 0 | 2 | 0 | 2 | 4 | 0 | 4 | 1 |
| CC(C)(C)C(=O)Nc1cnc(-c2cncc(F)c2)nc1C(F)(F)F [Compound F6] | 3 | 1 | 2 | 3 | 0 | 4 | 0 | 2 | 4 | 1 | 5 | 1 |
| O=C(C1CC1)N(C(=O)C1CC1)c1cnc(-c2cncc(F)c2)nc1C(F)(F)F [Compound F21] | 3 | 0 | 0 | 4 | 0 | 1 | 0 | 2 | 5 | 1 | 3 | 1 |
| CC(C)C(=O)N(C)c1cnc(-c2cncc(F)c2)nc1C(F)(F)F [Compound F20, N-[2-(5-fluoro-3-pyridyl)-4-(trifluoromethyl)pyrimidin-5-yl]-N,2-dimethyl-propanamide] | 4 | 1 | 3 | 5 | 0 | 4 | 1 | 3 | 5 | 1 | 5 | 2 |
